Measurements: patent US20110152267A1, “Compositions and Methods for Treating Hyperproliferative Disorders” (Texas Tech University System, priority 2009, published 2011)

Columns and labels:
[1] = test system: HT-29 colon cancer cell line; assay: DIMSCAN cytotoxicity dose-response with fenretinide, with or without D-threo-PPMP (Examples A, FIGS. 4, 10, 15, 21-23); format: cell-based, human; settings: +96 hrs
Protocol: Cytotoxicity Assay: Cytotoxicity in cell lines was determined using a fluorescence-based assay employing digital imaging microscopy (DIMSCAN)(after Fragala, et al, Mol Cancer Ther, 6:886-897, 2007). DIMSCAN quantitates viable cells which selectively accumulate fluorescein diacetate and is capable of measuring cytotoxicity over a 4-5 log dynamic range by quantifying total fluorescence per well (which is proportional to viable, clonogenic cells) after eliminating background fluorescence using digital thresholding and eosin Y quenching. Briefly, cell lines were seeded into 96-well plates in 100 µL of complete culture medium (10-20% serum) per well. Cells were incubated overnight in 2%, 5% or 20% oxygen (room air) prior to addition of drugs in […] volumes of complete medium to various final drug concentrations in replicates of 12 wells per concentration. In assays employing D-threo-PPMP, PPMP was employed at a fixed, minimally-toxic, final concentration of 10 μM in each well. Control wells received ethanol (final concentration=0.12%-0.20%) in complete medium equivalent to the maximum final ethanol concentration of drug-treated wells. Plates were incubated at various oxygen concentrations to simulate physiological hypoxia (i.e., 2% oxygen=typical solid tumor oxygen levels; 5%=bone marrow oxygen levels for leukemias; 20% room air=supraphysiological oxygen for comparison with typical laboratory culture conditions). Plates were assayed at 3-4 days after initiating drug exposure depending on the growth properties of each cell line, to allow for maximum cell death and outgrowth of surviving cells. To measure cytotoxicity, FDA (stock solution of 1 mg/ml in DMSO) was added, in 50 µL of complete medium per well, to a final concentration of 10 µg/ml. The plates were incubated for an additional 15-30 minutes at 37 C and then 30 µL of eosin Y (0.5% in normal saline) was added per well. Total fluorescence of each well was then measured using digital imaging microscopy.
FIGS. 1 to 26 illustrate the effect (Examples A1 through A26) of the claimed invention and were carried out using the procedures disclosed herein.

[2] = test system: CRL-2076 normal human fibroblast cell line; assay: DIMSCAN cytotoxicity, fenretinide + L-threo-sphinganines 3:1 (Example B1); format: cell-based; settings: CRL-2076, 20% O2, 96 h
Protocol: (§1) Cytotoxicity Assay—Once again, cytotoxicity is determined using the DIMSCAN assay system (R. Proffitt et al., Cytometry 24, 204-213 (1996); T. Frgala et al., Mol Cancer Ther. 6:886-97, 2007). The system employs digital imaging microscopy to quantify viable cells, which selectively accumulate fluorescein diacetate to become brightly fluorescent. The system is capable of measuring cytotoxicity over a 4-5 log dynamic range by quenching the residual fluorescence of dead and dying cells with eosin Y and quantifying the total fluorescence of viable cells using digital thresholding. Measured fluorescence is directly proportionate to the number of viable cells. A comparison of the total fluorescence of a drug-treated cell population to the fluorescence of a similar number of untreated cells yields a survival fraction. In brief, 2000 to 10,000 cells/well (depending on size and growth rates) are replicate plated into 60 wells of a 96-well tissue culture plate in 0.1 mL of whole medium and allowed to attach overnight. Drug(s) are then added in 0.05 mL of whole medium to the final concentrations indicated. Drugs (fenretinide, and various chain length L-threo-sphinganines) were tested both as single agents and in a 3:1 ratio of fenretinide:sphinganine. C18-L-threo-sphinganine, or “safingol,” was also tested and results shown for reference. There are 12 wells treated per drug concentration. Twelve wells receive drug vehicle-only to the appropriate final concentration and serve as controls for the plate. Cells are incubated for 96 hours at 37° C. in ambient air with 5% CO2. Fluorescein diacetate is then added to each well in 0.05 mL media to a final concentration of 8 microgram/mL. Cells are incubated for a further 15 minutes at 37° C. and 0.03 mL of 0.5% eosin Y is added to each well. Total fluorescence of viable cells is then measured by digital imaging microscopy. Results were graphed as the ratio of the fluoresecence of drug-treated wells to non-drug treated control wells (i.e., Survival Fraction). All tests were performed at least twice. Representative results are shown.
(§2) The Combination Index (CI) is a term to describe mathematical modeling of the pharmacologic effects on cytotoxicity (cell death) of two drugs in combination based. Cytotoxic “synergy” is defined as a cell death affect which is greater than would be expected from a simple product of the single agent cytotoxicities alone (i.e. an “additive” effect). By Chou-Talalay analysis, a CI<0.9 on a Fraction Affected (“Fa”, i.e. fraction of cells killed) indicates synergy, with smaller numbers indicating greater synergy; a CI of 0.9-1.1 signifies an additive or near-additive effect; and a CI>1.1 means the drug combination is antagonistic.
(§3) Fenretinide and L-threo-sphinganines tested in normal human fibroblast (normal skin cell) cell lines, CRL-2091 and CRL-2076.

[3] = test system: CRL-2091 normal human fibroblast cell line; assay: as above; format: cell-based; settings: CRL-2091, 20% O2, 96 h
Protocol: as §1, §2, §3

[4] = test system: MCF-7 breast adenocarcinoma cell line; assay: DIMSCAN cytotoxicity, fenretinide + L-threo-sphinganines 3:1 (Example B14); format: cell-based, human; settings: 96 h
Protocol: as §1, §2
Fenretinide and L-threo-sphinganines tested in human breast adenocarcinoma (breast cancer) cell lines, MCF-7 and MDA-MB-231.

[5] = test system: CHLA-266 primitive neuroectodermal tumor (PNET) cell line; assay: DIMSCAN cytotoxicity, fenretinide + L-threo-sphinganines 3:1 (Example B9); format: cell-based, human; settings: 96 h
Protocol: as §1, §2
Fenretinide and L-threo-sphinganines tested in human primitive neuroectodermal tumor (PNET) (brain cancer) cell line, CHLA-266.

[6] = 4-HPR 1.5 μM + L-threo-sphinganine 0.5 μM
[7] = 4-HPR 3 μM + L-threo-sphinganine 1 μM
[8] = 4-HPR 6 μM + L-threo-sphinganine 2 μM
[9] = 4-HPR 9 μM + L-threo-sphinganine 3 μM

SMILES: CCCCCCCCCCCCCC[C@H](O)[C@@H](N)CO [C17, (2S,3S)-2-amino-1,3-heptadecanediol]
- C.I. (Combination Index) with fenretinide ([1]; 2% oxygen, at one or more doses): < 1
- C.I. of D-threo-PPMP with fenretinide+L-threo-sphinganine (three drug combination) ([1]; 20% oxygen, D-threo-PPMP fixed 10 uM, at most doses): < 1
- CI (Combination Index) [2, 6]: >1
- Fa (fraction affected) [2, 6]: 0.05
- CI (Combination Index) [2, 7]: >1
- Fa (fraction affected) [2, 7]: 0.04
- CI (Combination Index) [2, 8]: >1
- Fa (fraction affected) [2, 8]: 0.09
- CI (Combination Index) [2, 9]: >1
- Fa (fraction affected) [2, 9]: 0.15
- CI (Combination Index) [3, 6]: >1
- Fa (fraction affected) [3, 6]: 0.13
- CI (Combination Index) [3, 7]: >1
- Fa (fraction affected) [3, 7]: 0.25
- CI (Combination Index) [3, 8]: >1
- Fa (fraction affected) [3, 8]: 0.13
- CI (Combination Index) [3, 9]: >1
- Fa (fraction affected) [3, 9]: 0.62
- CI (Combination Index) [4, 6]: 1.3
- Fa (fraction affected) [4, 6]: 0.112
- CI (Combination Index) [4, 7]: 0.7
- Fa (fraction affected) [4, 7]: 0.661
- CI (Combination Index) [4, 8]: 0.4
- Fa (fraction affected) [4, 8]: 0.974
- CI (Combination Index) [4, 9]: 0.4
- Fa (fraction affected) [4, 9]: 0.993
- CI (Combination Index) [5, 6]: 0.5
- Fa (fraction affected) [5, 6]: 0.502
- CI (Combination Index) [5, 7]: 0.5
- Fa (fraction affected) [5, 7]: 0.913
- CI (Combination Index) [5, 8]: 0.5
- Fa (fraction affected) [5, 8]: 0.990
- CI (Combination Index) [5, 9]: 0.7
- Fa (fraction affected) [5, 9]: 0.989
